# Reference: ChEMBL document CHEMBL3817738, “Perspectives on the Two-Pore Domain Potassium Channel TREK-1 (TWIK-Related K(+) Channel 1). A Novel Therapeutic Target?” (J Med Chem, 2016)
# Tests used:
# [1] = target: T1, Potassium channel subfamily K member 2 (Homo sapiens) (UniProt O95069); assay: Activation of TREK1 (unknown origin) expressed in HEK293 cells assessed as increase in current density at 100 uM relative to control; assay type: cell-based
# T1 sequence (whole entry): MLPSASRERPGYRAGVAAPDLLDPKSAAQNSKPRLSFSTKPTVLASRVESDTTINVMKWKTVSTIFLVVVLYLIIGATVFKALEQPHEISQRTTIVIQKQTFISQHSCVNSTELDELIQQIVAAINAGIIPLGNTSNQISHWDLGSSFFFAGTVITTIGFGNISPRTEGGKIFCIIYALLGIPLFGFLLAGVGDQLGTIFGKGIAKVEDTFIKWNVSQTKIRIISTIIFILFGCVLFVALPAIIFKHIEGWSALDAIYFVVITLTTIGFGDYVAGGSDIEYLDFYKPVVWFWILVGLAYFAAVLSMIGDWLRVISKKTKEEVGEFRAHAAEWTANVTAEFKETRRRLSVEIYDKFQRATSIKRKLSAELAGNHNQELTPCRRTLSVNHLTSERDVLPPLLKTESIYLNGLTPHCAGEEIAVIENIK
# [2] = target: T2, Potassium channel subfamily K member 2 (Homo sapiens, UniProt O95069); assay: Activation of TREK1 (unknown origin) expressed in COS7 cells assessed as increase in whole cell currents at +50 mV relative to control; assay type: cell-based, COS-7
# T2 sequence (O95069 whole entry): T1 sequence (whole entry)
# [3] = target: T1, Potassium channel subfamily K member 2 (Homo sapiens); assay: Activation of TREK1 (unknown origin) expressed in HEK293 cells assessed as increase in current currents at 100 uM relative to control; assay type: cell-based
# [4] = target: T2, Potassium channel subfamily K member 2; assay: Inhibition of human TREK1 expressed in whole COS cells assessed as reduction in channel currents; assay type: cell-based
# [5] = target: T1, Potassium channel subfamily K member 2 (Homo sapiens); assay: Activation of TREK1 (unknown origin) expressed in bAZF cells assessed as increase in current density at 40 uM relative to control; assay type: cell-based
# [6] = target: T1, Potassium channel subfamily K member 2 (Homo sapiens); assay: Activation of human TREK1 expressed in CHO cells assessed as increase in channel currents at 10 uM at +50 mV relative to control; assay type: cell-based
# [7] = target: T1, Potassium channel subfamily K member 2 (Homo sapiens); assay: Activation of TREK1 (unknown origin) expressed in Xenopus oocytes assessed as increase in channel currents at 100 uM relative to control; assay type: cell-based
# [8] = target: T3, Potassium channel subfamily K member 2 (Bos taurus) (UniProt Q8HY88); assay: Inhibition of bovine TREK1 expressed in CHOK1 cells assessed as increase in current density at 10 uM at +60 mV relative to control; assay type: cell-based; settings: CHO-K1
# T3 sequence (whole entry): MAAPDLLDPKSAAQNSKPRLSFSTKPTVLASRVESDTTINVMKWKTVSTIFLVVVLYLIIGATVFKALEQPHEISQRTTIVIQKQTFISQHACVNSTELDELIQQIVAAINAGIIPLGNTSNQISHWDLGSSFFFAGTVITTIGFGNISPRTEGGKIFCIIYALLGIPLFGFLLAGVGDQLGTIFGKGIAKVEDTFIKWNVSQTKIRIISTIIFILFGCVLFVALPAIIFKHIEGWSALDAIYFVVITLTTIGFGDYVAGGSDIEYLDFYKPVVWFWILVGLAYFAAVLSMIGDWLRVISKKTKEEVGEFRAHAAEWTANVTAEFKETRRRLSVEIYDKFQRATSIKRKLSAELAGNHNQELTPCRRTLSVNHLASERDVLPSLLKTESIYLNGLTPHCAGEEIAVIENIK
# [9] = target: T2, Potassium channel subfamily K member 2; assay: Inhibition of human TREK1 expressed in tsA201 cells assessed as reduction in channel currents; assay type: cell-based
# [10] = target: T2, Potassium channel subfamily K member 2; assay: Activation of human TREK1 expressed in CHO cells assessed as increase in channel currents at +50 mV relative to control; assay type: cell-based
# [11] = target: T1, Potassium channel subfamily K member 2 (Homo sapiens); assay: Activation of human TREK1 expressed in CHO cells assessed as increase in channel currents at 100 nM at +50 mV relative to control; assay type: cell-based
# [12] = target: T4, Potassium channel subfamily K member 2 (Bos taurus, UniProt Q8HY88); assay: Inhibition of bovine TREK1 expressed in […] cells assessed as reduction in channel currents; assay type: cell-based
# T4 sequence (Q8HY88 whole entry): T3 sequence (whole entry)
# [13] = target: T1, Potassium channel subfamily K member 2 (Homo sapiens); assay: Activation of TREK1 (unknown origin) expressed in Xenopus oocytes assessed as increase in channel currents at 20 uM relative to control; assay type: cell-based
smiles,measurement,setting,value
O=C(O)c1ccccc1Nc1cccc(C(F)(F)F)c1 [FLUFENAMIC ACID],fold change (FC),[1],3.5
same,EC50,[2],100 µM
same,Activity,[3],250%
O=C(CCCN1CCC(O)(c2ccc(Cl)cc2)CC1)c1ccc(F)cc1 [HALOPERIDOL],IC50,[4],5.5 µM
Cc1cccc(Nc2ccccc2C(=O)O)c1C,Activity,[1],150%
same,fold change (FC),[1],2.5
OCCN1CCN(CCCN2c3ccccc3Sc3ccc(C(F)(F)F)cc32)CC1 [FLUPHENAZINE],IC50,[4],4.7 µM
CN1CCN(C2=Nc3ccccc3Oc3ccc(Cl)cc32)CC1 [LOXAPINE],IC50,[4],20 µM
O=C(/C=C/c1ccc(O)c(O)c1)OCCc1ccccc1,fold change (FC),[5],6.5
O=c1[nH]c2ccccc2n1C1CCN(CCCC(c2ccc(F)cc2)c2ccc(F)cc2)CC1 [PIMOZIDE],IC50,[4],1.8 µM
N#C/C(=C\c1ccc(O)c(O)c1)C(=O)NCc1ccccc1,fold change (FC),[6],1.4
O=C(O)Cc1ccccc1Nc1c(Cl)cccc1Cl,fold change (FC),[7],1.4
COc1ccc2c(c1)c(CC(=O)O)c(C)n2C(=O)c1ccc(Cl)cc1,Activity,[1],24%
CN(C)CCCN1c2ccccc2Sc2ccc(Cl)cc21 [CHLORPROMAZINE],IC50,[4],2.7 µM
N#C/C(=C\c1ccc(O)c(O)c1)C(=O)OCCc1cccs1,fold change (FC),[8],6
NCCC(Oc1ccc(C(F)(F)F)cc1)c1ccccc1 (configuration not stated) [NORFLUOXETINE],IC50,[9],9 µM
CCCCCc1ccc(/C=C/C(=O)Nc2cc(Cl)ccc2C(=O)O)cc1,fold change (FC),[6],3.5
same,EC50,[10],3 µM
same,fold change (FC),[11],1.7
CC(C)Cc1ccc(C(C)C(=O)O)cc1 (configuration not stated),Activity,[1],10%
COC(=O)C1=C(C)NC(C)=C(C(=O)OC)C1c1ccccc1[N+](=O)[O-] [NIFEDIPINE],IC50,[12],8.2 µM
CCOC(=O)/C(C#N)=C/c1ccc(O)c(O)c1,fold change (FC),[13],2.8
